In PubChem BioAssay AID1259407 (Chemical Carcinogenesis Research Information System (CCRIS), 2018):
Active and inactive are the calls of the source. How the calls were made is not given here.

System: CCRIS mutagenicity, Ames/micronucleus/aberration tests
Experiment: CCRIS mutagenicity studies
[1] = Test System: AMES SALMONELLA TYPHIMURIUM, Strain/Indicator: TA97, Metabolic Activation: NONE, Method: STANDARD PLATE
[2] = Test System: AMES SALMONELLA TYPHIMURIUM, Strain/Indicator: TA97, Metabolic Activation: RAT, LIVER, S-9, AROCLOR 1254, Method: STANDARD PLATE
[3] = Test System: AMES SALMONELLA TYPHIMURIUM, Strain/Indicator: TA98, Metabolic Activation: NONE, Method: STANDARD PLATE
[4] = Test System: AMES SALMONELLA TYPHIMURIUM, Strain/Indicator: TA98, Metabolic Activation: RAT, LIVER, S-9, AROCLOR 1254, Method: STANDARD PLATE
[5] = Test System: AMES SALMONELLA TYPHIMURIUM, Strain/Indicator: TA100, Metabolic Activation: NONE, Method: PREINCUBATION
[6] = Test System: AMES SALMONELLA TYPHIMURIUM, Strain/Indicator: TA100, Metabolic Activation: NONE, Method: STANDARD PLATE
[7] = Test System: AMES SALMONELLA TYPHIMURIUM, Strain/Indicator: TA100, Metabolic Activation: RAT, LIVER, S-9, AROCLOR 1254, Method: STANDARD PLATE
[8] = Test System: AMES SALMONELLA TYPHIMURIUM, Strain/Indicator: TA1535, Metabolic Activation: NONE, Method: STANDARD PLATE
[9] = Test System: AMES SALMONELLA TYPHIMURIUM, Strain/Indicator: TA1535, Metabolic Activation: RAT, LIVER, S-9, AROCLOR 1254, Method: STANDARD PLATE
[10] = Test System: AMES SALMONELLA TYPHIMURIUM, Strain/Indicator: TA1537, Metabolic Activation: NONE, Method: STANDARD PLATE
[11] = Test System: AMES SALMONELLA TYPHIMURIUM, Strain/Indicator: TA1538, Metabolic Activation: NONE, Method: STANDARD PLATE
[12] = Test System: AMES SALMONELLA TYPHIMURIUM, Strain/Indicator: TA1538, Metabolic Activation: RAT, LIVER, S-9, AROCLOR 1254, Method: STANDARD PLATE
[13] = Test System: AMES SALMONELLA TYPHIMURIUM, Strain/Indicator: TA102, Metabolic Activation: NONE, Method: STANDARD PLATE
[14] = Test System: AMES SALMONELLA TYPHIMURIUM, Strain/Indicator: TA102, Metabolic Activation: RAT, LIVER, S-9, AROCLOR 1254, Method: STANDARD PLATE

SMILES: O=C(CCl)NCO
- mutagenic call [1]: inactive; negative
- mutagenic call [2]: inactive; negative
- mutagenic call (Test System: AMES SALMONELLA TYPHIMURIUM, Strain/Indicator: TA98, Metabolic Activation: NONE, Method: PREINCUBATION): inactive; negative
- mutagenic call [3]: inactive; negative
- mutagenic call (Test System: AMES SALMONELLA TYPHIMURIUM, Strain/Indicator: TA98, Metabolic Activation: RAT, LIVER, S-9, AROCLOR 1254, Method: PREINCUBATION): inactive; negative
- mutagenic call [4]: inactive; negative
- mutagenic call [5]: inactive; negative
- mutagenic call [6]: inactive; negative
- mutagenic call (Test System: AMES SALMONELLA TYPHIMURIUM, Strain/Indicator: TA100, Metabolic Activation: RAT, LIVER, S-9, AROCLOR 1254, Method: PREINCUBATION): inactive; negative
- mutagenic call [7]: inactive; negative
- mutagenic call [8]: inactive; negative
- mutagenic call [9]: inactive; negative
- mutagenic call [10]: inactive; negative
- mutagenic call (Test System: AMES SALMONELLA TYPHIMURIUM, Strain/Indicator: TA1537, Metabolic Activation: RAT, LIVER, S-9, AROCLOR 1254, Method: STANDARD PLATE): inactive; negative
- mutagenic call [11]: inactive; negative
- mutagenic call [12]: inactive; negative

SMILES: C[n+]1ccccc1-c1cccc[n+]1C
- mutagenic call (Test System: AMES SALMONELLA TYPHIMURIUM, Strain/Indicator: TA97, Metabolic Activation: RAT, LIVER, S-9, PHENOBARBITAL, Method: STANDARD PLATE): active; positive
- mutagenic call (Test System: AMES SALMONELLA TYPHIMURIUM, Strain/Indicator: TA98, Metabolic Activation: RAT, LIVER, S-9, PHENOBARBITAL, Method: STANDARD PLATE): active; positive
- mutagenic call (Test System: AMES SALMONELLA TYPHIMURIUM, Strain/Indicator: TA100, Metabolic Activation: RAT, LIVER, S-9, PHENOBARBITAL, Method: STANDARD PLATE): active; positive
- mutagenic call (Test System: AMES SALMONELLA TYPHIMURIUM, Strain/Indicator: TA1535, Metabolic Activation: RAT, LIVER, S-9, PHENOBARBITAL, Method: STANDARD PLATE): inactive; negative
- mutagenic call (Test System: AMES SALMONELLA TYPHIMURIUM, Strain/Indicator: TA1537, Metabolic Activation: RAT, LIVER, S-9, PHENOBARBITAL, Method: STANDARD PLATE): inactive; negative
- mutagenic call (Test System: AMES SALMONELLA TYPHIMURIUM, Strain/Indicator: TA1538, Metabolic Activation: RAT, LIVER, S-9, PHENOBARBITAL, Method: STANDARD PLATE): inactive; negative

SMILES: CNC(=O)ON(C(C)=O)C(=O)NC
- mutagenic call (Test System: AMES SALMONELLA TYPHIMURIUM, Strain/Indicator: TA98, Metabolic Activation: RAT, LIVER, S-9, Method: STANDARD PLATE): active; positive
- mutagenic call [6]: inactive; negative

SMILES: CN(C)C(=S)SSC(=S)N(C)C
- mutagenic call (End Point: IN VIVO MICRONUCLEUS, Test System: BONE MARROW POLYCHROMATIC ERYTHROCYTES, Species: MOUSE, Strain/Sex: SWISS/MALE, FEMALE, Route: IP 2X IN AQUEOUS SUSPENSION WITHIN 24 HR): inactive; negative
- mutagenic call [4]: active; positive
- mutagenic call (Test System: AMES SALMONELLA TYPHIMURIUM, Strain/Indicator: TA98, Metabolic Activation: S-9, Method: STANDARD PLATE): inactive; negative
- mutagenic call [7]: active; positive
- mutagenic call (Test System: AMES SALMONELLA TYPHIMURIUM, Strain/Indicator: TA100, Metabolic Activation: S-9, Method: STANDARD PLATE): active; positive
- mutagenic call [13]: inactive; negative
- mutagenic call [14]: inactive; negative
- mutagenic call (Test System: AMES SALMONELLA TYPHIMURIUM, Strain/Indicator: TA104, Metabolic Activation: NONE, Method: STANDARD PLATE): inactive; negative
- mutagenic call (Test System: AMES SALMONELLA TYPHIMURIUM, Strain/Indicator: TA104, Metabolic Activation: RAT, LIVER, S-9, AROCLOR 1254, Method: STANDARD PLATE): inactive; negative
- mutagenic call [8]: active; positive
- mutagenic call [9]: active; positive
- mutagenic call [11]: active; positive
- mutagenic call [12]: active; positive
- mutagenic call (Test System: CHINESE HAMSTER V-79, Strain/Indicator: V-79 (HGPRT)/6-THIOGUANINE, Metabolic Activation: NONE, Method: RESPREADING): active; positive

SMILES: COC(=O)[C@@H](C)Cl
- mutagenic call [5]: active; positive
- mutagenic call (Test System: AMES SALMONELLA TYPHIMURIUM, Strain/Indicator: TA100, Metabolic Activation: RAT, LIVER, S-9, PCB, Method: PREINCUBATION): active; positive

SMILES: CCOC(=O)CNC(=O)C(C)(C)Br
- mutagenic call (Test System: AMES SALMONELLA TYPHIMURIUM, Strain/Indicator: TA100, Metabolic Activation: MOUSE, LIVER, S-9, AROCLOR 1254, Method: STANDARD PLATE): inactive; negative
- mutagenic call [6]: inactive; negative

SMILES: c1ccc2c(c1)-c1cc3ccc4ccccc4c3cc1C1OC21 (centres undefined)
- mutagenic call [3]: inactive; negative
- mutagenic call [6]: inactive; negative
- mutagenic call [10]: active; positive
- mutagenic call (Test System: CHINESE HAMSTER V-79, Strain/Indicator: V-79/8-AZAGUANINE, Metabolic Activation: NONE, Method: STANDARD PLATE): active; positive

SMILES: Clc1ccncc1
- mutagenic call [1]: inactive; negative
- mutagenic call [2]: inactive; negative
- mutagenic call [3]: inactive; negative
- mutagenic call [4]: inactive; negative
- mutagenic call [6]: inactive; negative
- mutagenic call [7]: inactive; negative
- mutagenic call [13]: inactive; negative
- mutagenic call [14]: inactive; negative
